Patent US4716238A, “Chromene derivatives useful as insecticides” (Alkaloida Vegyeszeti Gyar, priority 1983, dated 1987)
Read-outs that look alike come from different tables or passages of the source.

Tests used:
insects = conditions: prior art; cited from earlier work
cabbage butterfly = experiment: Cabbage butterfly test (sprayed cabbage seedlings, II. stage larvae); assay type: in vivo; conditions: Pieris brassicae, 50 EC composition; for mortality at 0.01 % / survival at 0.01 %: concentration 0.01%; for mortality at 0.01 % / mortality at 0.1 %: read-out: Killing rate of larvae; for mortality at 0.1 % / survival at 0.1 %: concentration 0.1%
Protocol: cabbage butterfly (Pieris brassicae)
From the 50 EC of the test compound a dilution series is prepared with water and the host seedlings (cabbage) are sprayed with this composition until the spray runs down. The spray is allowed to dry whereupon 20 young larvae of the II. stage are placed on each treated plant and the seedlings are kept under so-called "long-day" illumination (18 hours of illumination and 6 hours of darkness). The nibbled plants are replaced by similarly sprayed plants if necessary. The killing rate of the insects, the growth rate of the larvae and the morphological deformations of the surviving nymphs and adults are registered.
In the 50 EC compositions P1 and test compound 1 are used in a concentration of 0.01%, and the other active ingredients in a concentration of 0.1%.

domestic fly = experiment: Domestic fly test (larvae on treated nutrient medium); assay type: in vivo; conditions: Musca domestica
Protocol: domestic fly (Musca domestica)
The fly larvae are grown on a nutrient medium of the following composition: 2 ml of milk; 2 ml of water; 2 g of wheat bran; 0.1 ml of saturated alcoholic nipagin solution.
The nutrient medium is filled into cylindrical glass vials (30×100 mm) and 25 fly larvae are raised in each vial. The test compound is dissolved in milk; the end concentration (related to milk) amounts to 0.1% which corresponds to 0.05% (related to the total nutrient medium). The solution of the active ingredient is admixed with the nutrient medium whereupon […] of domestic fly larvae of the I. stage are placed into each vial and the vials are closed with a hard cotton-wool stopper. The nymphs emerging from the larvae are collected in each vial, counted and kept in a petri dish (diameter 25 mm) until flies hatch from the nymphs. The hatched flies are counted.

mustard beetle = experiment: Mustard beetle test; assay type: in vivo; conditions: Phaedon cochleariae; concentration 1%; control 100%; read-out: Survival of adults
Protocol: Two weeks old mustard seedlings are sprayed with a solution of 0.1 g of the test compound, 0.5 ml of dimethyl sulfoxide, and 10 μl of 50 EC composition in 10 ml of water. After the spray is dried, 20 mustard larvae of the II. stage are placed on each plant. The sprayed plants are changed every second day. The evaluation is based on the number of imagos hatching from the nymphs.

[1] = tested on: Caenorhabditis elegans adult nematodes; experiment: Nematocidal effect on Caenorhabditis elegans adult nematodes; assay type: in vivo; conditions: for Size of descendant population: control normal; for mortality at 200 µg/mL / mortality at 400 µg/mL: Caenorhabditis elegans, read-out: Lethality
Protocol: Caenorhabditis elegans 0.5 ml of the acetonous solution of the test compound is applied onto a NGM agar plate free from bacteria in a Petri dish. After the acetone was dried 25-30 young adults are placed on the plate. After 24 hours the surviving and killed […] are counted.

cotton bug = experiment: Cotton bug test (topical application on larvae of II. stage); assay type: in vivo, Dysdercus fasciatus
Protocol: cotton bug (Dysdercus fasciatus) A dilution series is prepared from the test compound with acetone, and 0.2 μl of each dilution is topically applied onto the back part of larvae of the II. stage of growth with the aid of a Hamiltion syringe. The active ingredient is absorbed through the cuticula. The animals are kept in a large glass and fed with cotton grains and water. After adult shedding the surviving insects are observed for eventual adultoid symptoms, the egg-reproduction and the development of the ovules is evaluated too. (Remark: in the cotton bug test 50 insects are used). In each Table the control value are disclosed too.

Row | Structure (SMILES) | survival at 0.1 % (domestic fly; read-out: Survival, adult) | survival at 0.1 % (domestic fly; read-out: Survival, nymph) | mortality at 0.1 % (cabbage butterfly) | survival at 0.1 % (cabbage butterfly; read-out: Survival, adult) | survival at 0.1 % (cabbage butterfly; read-out: Survival, nymph) | Size of descendant population ([1]; 200 μg/ml) | Size of descendant population ([1]; 400 μg/ml) | also measured
1 | COc1cc2c(cc1OC(C)C)OC(C)(C)C=C2 [6-methoxy-7-isopropoxy-2,2-dimethyl-chromene] |  |  |  |  |  |  |  | activity relative to natural P1 and P2 (insects): considerably more active than natural P1 and P2
2 | CCCOc1ccc2c(c1)OC(C)(C)C=C2 [Compound 1] |  |  |  |  |  |  |  | mortality at 0.01 % (cabbage butterfly): 52%; survival at 0.01 % (cabbage butterfly; read-out: Survival, adult): 39%; survival at 0.01 % (cabbage butterfly; read-out: Survival, nymph): 48%
3 | CC(C)COc1ccc2c(c1)OC(C)(C)C=C2 [Compound 3] | 28.2% | 100% |  |  |  |  |  | 
4 | CCOc1cc(C)c2c(c1)OC(C)(C)C=C2 [Compound 17] | 14.8% | 40% | 81% | 19% | 19% |  |  | 
5 | Cc1cc(OC(C)C)cc2c1C=CC(C)(C)O2 [Compound 19] | 27.6% | 50.9% |  |  |  |  |  | 
6 | CCC(C)Oc1cc(C)c2c(c1)OC(C)(C)C=C2 (centres unmarked) [Compound 20] | 12.5% | 25.4% | 11% | 14% | 19% |  |  | 
7 | Cc1cc(OCC(C)C)cc2c1C=CC(C)(C)O2 [Compound 21] | 25.5% | 45.7% | 100% |  |  |  |  | survival at 1 % (mustard beetle): 27%
8 | Cc1cc(OC2CCCC2)cc2c1C=CC(C)(C)O2 [Compound 22] | 31.8% | 52.7% | 100% |  |  |  |  | 
9 | C#CCOc1cc(C)c2c(c1)OC(C)(C)C=C2 [Compound 30] | 10.6% | 50.9% | 83% | 17% | 17% | some descendants | no descendants | Remark ([1]; 200 μg/ml): paralysis; Remark ([1]; 400 μg/ml): paralysis; mortality at 200 µg/mL ([1]; 24 h): 20%; mortality at 400 µg/mL ([1]; 24 h): 30%
10 | C=CCOc1cc2c(cc1OCC=C)OC(C)(C)C=C2 [Compound 58] |  |  |  |  |  | some descendants | no descendants | mortality at 200 µg/mL ([1]; 24 h): 40%; mortality at 400 µg/mL ([1]; 24 h): 90%
11 | CC(C)=CCOc1cc2c(cc1OCC=C(C)C)OC(C)(C)C=C2 [Compound 60] |  |  |  |  |  |  |  | LD50 (cotton bug): 0.6 μg/insect
12 | CCC(C)Oc1cc2c(cc1OC)C=CC(C)(C)O2 (centres unmarked) [Compound 66] |  |  |  |  |  |  |  | AJH effect (cotton bug): 0.1 μg/insect; LD50 (cotton bug): 0.4 μg/insect
13 | COc1cc2c(cc1OCC(C)C)OC(C)(C)C=C2 [Compound 67] |  |  |  |  |  |  |  | LD50 (cotton bug): 0.4 μg/insect
14 | CCOc1ccc2c(c1OC)OC(C)(C)C=C2 [Compound 87] | 4.2% | 5.4% | 76% | 24% | 24% | reduced | no descendants | mortality at 200 µg/mL ([1]; 24 h): 40%; mortality at 400 µg/mL ([1]; 24 h): 100%
15 | CCCOc1ccc2c(c1OC)OC(C)(C)C=C2 [Compound 88, 7-n-propoxy-8-methoxy-2,2-dimethyl-2H-chromene] | 0% | 12.7% | 100% |  |  |  |  | survival at 1 % (mustard beetle): 45%
16 | CCC(C)Oc1ccc2c(c1OC)OC(C)(C)C=C2 (centres unmarked) [Compound 89, 7-sec.butoxy-8-methoxy-2,2-dimethyl-2H-chromene] |  |  | 100% |  |  | reduced | reduced | mortality at 200 µg/mL ([1]; 24 h): 25%; mortality at 400 µg/mL ([1]; 24 h): 85%
17 | COc1c(OC(C)C)ccc2c1OC(C)(C)C=C2 [Compound 90, 7-isopropoxy-8-methoxy-2,2-dimethyl-2H-chromene] | 0% | 12% | 64% | 32% | 36% | reduced | reduced | mortality at 200 µg/mL ([1]; 24 h): 60%; mortality at 400 µg/mL ([1]; 24 h): 73%
18 | COc1c(OCC(C)C)ccc2c1OC(C)(C)C=C2 [Compound 91, 7-isobutoxy-8-methoxy-2,2-dimethyl-2H-chromene] |  |  | 93% | 7% | 7% |  |  | 
19 | CCCOc1cc(OC)c2c(c1)OC(C)(C)C=C2 [Compound 107] | 6.4% | 9.1% | 88% | 12% | 12% |  |  | 
20 | COc1cc(OC(C)C)cc2c1C=CC(C)(C)O2 [Compound 108] |  |  | 87% | 9% | 13% |  |  | 
21 | CCC(C)Oc1cc(OC)c2c(c1)OC(C)(C)C=C2 (centres unmarked) [Compound 109] |  |  | 100% |  |  |  |  | 
22 | COc1cc(OCC(C)C)cc2c1C=CC(C)(C)O2 [Compound 110, 5-methoxy-7-isobutoxy-2,2-dimethyl-2H-chromene] | 0% | 0% | 100% |  |  |  |  | 
23 | COc1ccc2c(c1)OC(C)(C)C=C2 [Compound P1, reference compound] |  |  |  |  |  | reduced | no descendants | mortality at 0.01 % (cabbage butterfly): 41%; survival at 0.01 % (cabbage butterfly; read-out: Survival, adult): 50%; survival at 0.01 % (cabbage butterfly; read-out: Survival, nymph): 59%; survival at 0.1 % (domestic fly; 0.1% related to milk (0.05% of total nutrient medium), control 100%, read-out: Survival, adult): 33.3%; survival at 0.1 % (domestic fly; 0.1% related to milk (0.05% of total nutrient medium), control 100%, read-out: Survival, nymph): 100%; mortality at 200 µg/mL ([1]; 200 μg/ml, 24 hours): 44%; mortality at 400 µg/mL ([1]; 400 μg/ml, 24 hours): 98%
24 | COc1cc2c(cc1OC)OC(C)(C)C=C2 [Compound P2, reference compound] |  |  |  |  |  | no descendants | no descendants | AJH effect (cotton bug): 1 μg/insect; LD50 (cotton bug): 0.6 μg/insect; Sterilizing effect (cotton bug): 10 μg/insect; mortality at 200 µg/mL ([1]; 200 μg/ml, 24 hours): 100%; mortality at 400 µg/mL ([1]; 400 μg/ml, 24 hours): 100%
25 | CCOc1cc2c(cc1OC)C=CC(C)(C)O2 [Compound P3, 6-methoxy-7-ethoxy-2,2-dimethyl-2H-chromene, reference compound] |  |  |  |  |  | some descendants | no descendants | mortality at 200 µg/mL ([1]; 24 h): 70%; mortality at 400 µg/mL ([1]; 24 h): 90%; activity relative to natural P1 and P2 (insects): considerably more active than natural P1 and P2
